Assay results taken from patent US11034718B2, “C-3 novel triterpenone with C-17 reverse amide derivatives as HIV inhibitors” (HETERO LABS LIMITED, priority 2015, dated 2021).
Where two headings read alike, the source gives them in different places.

What was measured:
Format in all cases: cell-based
HIV-1 strain 92HT599 = test: Antiviral activity against HIV-1 strain 92HT599 in MT2 cells (p24 estimation); conditions: HIV-1 92HT599, ~96 hours
How it was run: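 Percent inhibition versus vehicle controls came from p24 quantified in supernatant aliquots. These were taken after ~96 h incubation of compound (DMSO ≤1%) with MT2 cells infected at 10 TCID50/30,000 cells.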

HIV-1 pNL4-3 WT = test: Antiviral activity against pNL4-3/WT strain in MT4 cells (p24 estimation); conditions: Human immunodeficiency virus 1, MT4, 96 h, read-out: pNL4-3 WT IC50
Experimental: (§1) Example 78: Evaluation of Compounds Antiviral Activity Against pNL4-3/WT & V7A Strains in MT4 Cells
(§2) MT4 cells were Transfected with HIV-1 Plasmid (pNL4-3-WT & V7A) (Cells were incubating with required number of TCID50 of HIV-1 for 1.5 h at 37° C.). After infection, the infected cells were plated at the concentration of 3×10^4 cells per well in 96 well plate. Test compound was added to the test plate in defined format with the final concentration of DMSO is not more than 1%. Incubation was carried out in CO2 incubator for 4 days for viral infection. At the end of incubation period an aliquot from each well was taken for p24 estimation. p24 estimation was carried out using Advance biosciences kit as per the procedure detailed by supplier.

HIV-1 pNL4-3 V7A = test: Antiviral activity against pNL4-3/V7A strain in MT4 cells (p24 estimation); conditions: Human immunodeficiency virus 1, MT4, 96 h, read-out: pNL4-3 V7A IC50
Experimental: as §1, §2

[1] = Human immunodeficiency virus 1, 0% serum binding assay, read-out: IC50 0% serum
[2] = Human immunodeficiency virus 1, 40% serum binding assay, read-out: IC50 40% serum

CC(C)C1=C2[C@H]3CC[C@@H]4[C@@]5(C)CC[C@H](OC(=O)[C@H]6C[C@@H](C(=O)O)C6(C)C)C(C)(C)[C@@H]5CC[C@@]4(C)[C@]3(C)CC[C@@]2(NC(=O)C(C)(C)NC(=O)CN2CCS(=O)(=O)CC2)CC1=O [Example 34, (1R,3S)-3-((((3aR,5aR,5bR,7aR,9S,11aR,11bR,13aS)-3a-(2-(2-(1,1-dioxidothiomorpholino)acetamido)-2-methylpropanamido)-1-isopropyl-5a,5b,8,8,11a-pentamethyl-2-oxo-3,3a,4,5,5a,5b,6,7,7a,8,9,10,11,11a,11b,12,13,13a-octadecahydro-2H-cyclopenta[a]chrysen-9-yl)oxy)carbonyl)-2,2-dimethylcyclobutane-1-carboxylic acid]
IC50 (HIV-1 strain 92HT599; [1]): < 3 nM
IC50 (HIV-1 strain 92HT599; [2]): < 50 nM
IC50 (HIV-1 pNL4-3 WT): < 5 nM
IC50 (HIV-1 pNL4-3 V7A): 10 to 50 nM

CC(C)C1=C2[C@H]3CC[C@@H]4[C@@]5(C)CC[C@H](OC(=O)[C@H]6C[C@@H](C(=O)O)C6(C)C)C(C)(C)[C@@H]5CC[C@@]4(C)[C@]3(C)CC[C@@]2(NC(=O)C2(NC(=O)c3ccc(Cl)cc3)CC2)CC1=O [Example 37, (1R,3S)-3-((((3aR,5aR,5bR,7aR,9S,11aR,11bR,13aS)-3a-(1-(4-chlorobenzamido)cyclopropane-1-carboxamido)-1-isopropyl-5a,5b,8,8,11a-pentamethyl-2-oxo-3,3a,4,5,5a,5b,6,7,7a,8,9,10,11,11a,11b,12,13,13a-octadecahydro-2H-cyclopenta[a]chrysen-9-yl)oxy)carbonyl)-2,2-dimethylcyclobutane-1-carboxylic acid]
IC50 (HIV-1 strain 92HT599; [1]): < 3 nM
IC50 (HIV-1 strain 92HT599; [2]): < 50 nM
IC50 (HIV-1 pNL4-3 WT): < 5 nM
IC50 (HIV-1 pNL4-3 V7A): < 10 nM

Cc1ccc(C(=O)NC2(C(=O)N[C@@]34CC[C@]5(C)[C@H](CC[C@@H]6[C@@]7(C)CC[C@H](OC(=O)[C@H]8C[C@@H](C(=O)O)C8(C)C)C(C)(C)[C@@H]7CC[C@]65C)C3=C(C(C)C)C(=O)C4)CC2)cn1 [Example 38, (1R,3S)-3-((((3aR,5aR,5bR,7aR,9S,11aR,11bR,13aS)-1-isopropyl-5a,5b,8,8,11a-pentamethyl-3a-(1-(6-methylnicotinamido)cyclopropane-1-carbox amido)-2-oxo-3,3a,4,5,5a,5b,6,7,7a,8,9,10,11,11a,11b,12,13,13a-octadecahydro-2H-cyclopenta[a]chrysen-9-yl)oxy)carbonyl)-2,2-dimethylcyclobutane-1-carboxylic acid]
IC50 (HIV-1 strain 92HT599; [1]): < 3 nM
IC50 (HIV-1 strain 92HT599; [2]): < 50 nM
IC50 (HIV-1 pNL4-3 WT): < 5 nM
IC50 (HIV-1 pNL4-3 V7A): < 10 nM

CC(C)C1=C2[C@H]3CC[C@@H]4[C@@]5(C)CC[C@H](OC(=O)[C@H]6C[C@@H](C(=O)O)C6(C)C)C(C)(C)[C@@H]5CC[C@@]4(C)[C@]3(C)CC[C@@]2(NC(=O)C2(NC(=O)c3ccc(F)cc3)CC2)CC1=O [Example 39, (1R,3S)-3-((((3aR,5aR,5bR,7aR,9S,11aR,11bR,13aS)-3a-(1-(4-fluorobenzamido)cyclopropane-1-carboxamido)-1-isopropyl-5a,5b,8,8,11a-pentamethyl-2-oxo-3,3a,4,5,5a,5b,6,7,7a,8,9,10,11,11a,11b,12,13,13a-octadecahydro-2H-cyclopenta[a]chrysen-9-yl)oxy)carbonyl)-2,2-dimethylcyclobutane-1-carboxylic acid]
IC50 (HIV-1 strain 92HT599; [1]): < 3 nM
IC50 (HIV-1 strain 92HT599; [2]): < 50 nM
IC50 (HIV-1 pNL4-3 WT): 5.01 to 10 nM
IC50 (HIV-1 pNL4-3 V7A): 10 to 50 nM

Cc1ccc(C(=O)NC2(C(=O)N[C@@]34CC[C@]5(C)[C@H](CC[C@@H]6[C@@]7(C)CC[C@H](OC(=O)[C@H]8C[C@@H](C(=O)O)C8(C)C)C(C)(C)[C@@H]7CC[C@]65C)C3=C(C(C)C)C(=O)C4)CC2)cc1 [Example 40, (1R,3S)-3-((((3aR,5aR,5bR,7aR,9S,11aR,11bR,13aS)-1-isopropyl-5a,5b,8,8,11a-pentamethyl-3a-(1-(4-methylbenzamido)cyclopropane-1-carboxamido)-2-oxo-3,3a,4,5,5a,5b,6,7,7a,8,9,10,11,11a,11b,12,13,13a-octadecahydro-2H-cyclopenta[a]chrysen-9-yl)oxy)carbonyl)-2,2-dimethylcyclobutane-1-carboxylic acid]
IC50 (HIV-1 strain 92HT599; [1]): < 3 nM
IC50 (HIV-1 strain 92HT599; [2]): < 50 nM
IC50 (HIV-1 pNL4-3 WT): < 5 nM
IC50 (HIV-1 pNL4-3 V7A): < 10 nM

CC(C)C1=C2[C@H]3CC[C@@H]4[C@@]5(C)CC[C@H](OC(=O)[C@@H]6C[C@H](C(=O)O)C6(C)C)C(C)(C)[C@@H]5CC[C@@]4(C)[C@]3(C)CC[C@@]2(NC(=O)C2(NC(=O)c3ccc(Cl)cc3)CC2)CC1=O [Example 41, (1S,3R)-3-((((3aR,5aR,5bR,7aR,9S,11aR,11bR,13aS)-3a-(1-(4-chlorobenzamido)cyclopropane-1-carboxamido)-1-isopropyl-5a,5b,8,8,11a-pentamethyl-2-oxo-3,3a,4,5,5a,5b,6,7,7a,8,9,10,11,11a,11b,12,13,13a-octadecahydro-2H-cyclopenta[a]chrysen-9-yl)oxy)carbonyl)-2,2-dimethylcyclobutane-1-carboxylic acid]
IC50 (HIV-1 strain 92HT599; [1]): < 3 nM
IC50 (HIV-1 strain 92HT599; [2]): < 50 nM
IC50 (HIV-1 pNL4-3 WT): > 10 nM
IC50 (HIV-1 pNL4-3 V7A): 10 to 50 nM

CC(C)C1=C2[C@H]3CC[C@@H]4[C@@]5(C)CC[C@H](OC(=O)[C@H]6C[C@@H](C(=O)O)C6(C)C)C(C)(C)[C@@H]5CC[C@@]4(C)[C@]3(C)CC[C@@]2(NC(=O)C2(NC(=O)c3ccc(Cl)cc3)CCC2)CC1=O [Example 42, (1R,3S)-3-((((3aR,5aR,5bR,7aR,9S,11aR,11bR,13aS)-3a-(1-(4-chlorobenzamido)cyclobutane-1-carboxamido)-1-isopropyl-5a,5b,8,8,11a-pentamethyl-2-oxo-3,3a,4,5,5a,5b,6,7,7a,8,9,10,11,11a,11b,12,13,13a-octadecahydro-2H-cyclopenta[a]chrysen-9-yl)oxy)carbonyl)-2,2-dimethylcyclobutane-1-carboxylic acid]
IC50 (HIV-1 strain 92HT599; [1]): < 3 nM
IC50 (HIV-1 strain 92HT599; [2]): < 50 nM
IC50 (HIV-1 pNL4-3 WT): 5.01 to 10 nM
IC50 (HIV-1 pNL4-3 V7A): < 10 nM

CC(C)C1=C2[C@H]3CC[C@@H]4[C@@]5(C)CC[C@H](OC(=O)[C@H]6C[C@@H](C(=O)O)C6(C)C)C(C)(C)[C@@H]5CC[C@@]4(C)[C@]3(C)CC[C@@]2(NC(=O)C2(NC(=O)c3ncccn3)CCC2)CC1=O [Example 44, (1R,3S)-3-((((3aR,5aR,5bR,7aR,9S,11aR,11bR,13aS)-1-isopropyl-5a,5b,8,8,11a-pentamethyl-2-oxo-3a-(1-(pyrimidine-2-carboxamido)cyclobutane-1-carboxamido)-3,3a,4,5,5a,5b,6,7,7a,8,9,10,11,11a,11b,12,13,13a-octadecahydro-2H-cyclopenta[a]chrysen-9-yl)oxy)carbonyl)-2,2-dimethylcyclobutane-1-carboxylic acid]
IC50 (HIV-1 strain 92HT599; [1]): < 3 nM
IC50 (HIV-1 strain 92HT599; [2]): 50 to 200 nM
IC50 (HIV-1 pNL4-3 WT): > 10 nM
IC50 (HIV-1 pNL4-3 V7A): > 50 nM

CC(C)C1=C2[C@H]3CC[C@@H]4[C@@]5(C)CC[C@H](OC(=O)[C@H]6C[C@@H](C(=O)O)C6(C)C)C(C)(C)[C@@H]5CC[C@@]4(C)[C@]3(C)CC[C@@]2(NC(=O)C2(NC(=O)c3cccnc3N3CCOCC3)CCC2)CC1=O [Example 45, (1R,3S)-3-((((3aR,5aR,5bR,7aR,9S,11aR,11bR,13aS)-1-isopropyl-5a,5b,8,8,11a-pentamethyl-3a-(1-(2-morpholinonicotinamido)cyclobutane-1-carboxamido)-2-oxo-3,3a,4,5,5a,5b,6,7,7a,8,9,10,11,11a,11b,12,13,13a-octadecahydro-2H-cyclopenta[a]chrysen-9-yl)oxy)carbonyl)-2,2-dimethylcyclobutane-1-carboxylic acid]
IC50 (HIV-1 strain 92HT599; [1]): 3.01 to 10 nM
IC50 (HIV-1 strain 92HT599; [2]): < 50 nM
IC50 (HIV-1 pNL4-3 WT): < 5 nM
IC50 (HIV-1 pNL4-3 V7A): 10 to 50 nM

Cc1ccc(C(=O)NC2(C(=O)N[C@@]34CC[C@]5(C)[C@H](CC[C@@H]6[C@@]7(C)CC[C@H](OC(=O)[C@H]8C[C@@H](C(=O)O)C8(C)C)C(C)(C)[C@@H]7CC[C@]65C)C3=C(C(C)C)C(=O)C4)CCCC2)cn1 [Example 47, (1R,3S)-3-((((3aR,5aR,5bR,7aR,9S,11aR,11bR,13aS)-1-isopropyl-5a,5b,8,8,11a-pentamethyl-3a-(1-(6-methylnicotinamido)cyclopentane-1-carboxamido)-2-oxo-3,3a,4,5,5a,5b,6,7,7a,8,9,10,11,11a,11b,12,13,13a-octadecahydro-2H-cyclopenta[a]chrysen-9-yl)oxy)carbonyl)-2,2-dimethylcyclobutane-1-carboxylic acid]
IC50 (HIV-1 strain 92HT599; [1]): < 3 nM
IC50 (HIV-1 strain 92HT599; [2]): < 50 nM
IC50 (HIV-1 pNL4-3 WT): < 5 nM
IC50 (HIV-1 pNL4-3 V7A): < 10 nM

CC(C)C1=C2[C@H]3CC[C@@H]4[C@@]5(C)CC[C@H](OC(=O)[C@H]6C[C@@H](C(=O)O)C6(C)C)C(C)(C)[C@@H]5CC[C@@]4(C)[C@]3(C)CC[C@@]2(NC(=O)C(C)(C)NC(=O)c2ccc(S(C)(=O)=O)cc2)CC1=O [Example 51, (1R,3S)-3-((((3aR,5aR,5bR,7aR,9S,11aR,11bR,13aS)-1-isopropyl-5a,5b,8,8,11a-pentamethyl-3a-(2-methyl-2-(4-(methylsulfonyl)benzamido)propanamido)-2-oxo-3,3a,4,5,5a,5b,6,7,7a,8,9,10,11,11a,11b,12,13,13a-octadecahydro-2H-cyclopenta[a]chrysen-9-yl)oxy)carbonyl)-2,2-dimethylcyclobutane-1-carboxylic acid]
IC50 (HIV-1 strain 92HT599; [1]): < 3 nM
IC50 (HIV-1 strain 92HT599; [2]): < 50 nM
IC50 (HIV-1 pNL4-3 WT): 5.01 to 10 nM
IC50 (HIV-1 pNL4-3 V7A): > 50 nM
